# According to US20030003396A1, “Optical data carrier comprising a merocyanine dye as light-absorbent compound in the information layer” (priority 2001, published 2003):
# Marks after values point to notes of the source that are not given here.
# Assays:
# [1] = Solubility in coating solvent; conditions: in TFP (2,2,3,3-tetrafluoropropanol)
# [2] = UV absorption spectra measured in solution; format: physicochemical
# From the text: In the case of a write-once optical data carrier according to the invention which is written on and read by means of the light of a blue laser, preference is given to merocyanine dyes whose absorption maximum λmax1 is in the range from 340 to 410 nm, […] half of the […] one tenth of the absorbance value at λmax1 are preferably not more than 50 nm apart. Such a merocyanine dye preferably has no longer-wavelength maximum λmax2 up to a wavelength of 500 nm, particularly preferably up to 550 nm, very particularly preferably up to 600 nm.
# The absorption spectra are measured, for example, in solution.
# Suitable merocyanines having the required spectral properties are, in particular, those in which the dipole moment change Δμ=|μg−μag|, i.e. the positive difference between the dipole moments in the ground state and in the first excited state, is very small, preferably <5 D, particularly preferably <2 D. A method of determining such a dipole moment change Δμ is described, for example, in F. Würthner et al., Angew. Chem. 1997, 109, 2933, and in the literature cited therein. A low solvent-induced wavelength shift (dioxane/DMF) is likewise a suitable selection criterion. Preference is given to merocyanines whose solvent-induced wavelength shift Δλ=|λDMF−λdioxane|, i.e. the positive difference between the absorption wavelengths in the solvents dimethylformamide and dioxane, is <20 nm, particularly preferably <10 nm, very particularly preferably <5 nm
# [3] = Table 1, on the short wavelength flank
# [4] = Table 1, on the long wavelength flank
# [5] = Table 2, on the short wavelength flank
# [6] = Table 2, on the long wavelength flank
Structure (SMILES),ε ([2]; Table 1) [L/mol/cm],"λmax ([2]; Table 1, in dioxane) [nm]",ε ([2]; Table 2) [L/mol/cm],"λmax ([2]; Table 2, in dioxane) [nm]",also measured
CCOC(=O)C1=C(C#N)C(=O)N(C)C(=O)/C1=C/C=C1\N(C)c2ccccc2C1(C)C [Example 1],,,,,Solubility [1]: > 2%; ε (molar extinction coefficient) ([2]; at absorption maximum): 56010 L/mol/cm; UV λmax ([2]; in DMF): 609 nm; UV λmax ([2]; in dioxane): 587 nm; λ1/2-λ1/10 ([2]; long wavelength flank): 27 nm; Δλ (solvent-induced wavelength shift) ([2]; |λDMF−λdioxane|): 22 nm
CN(C)c1ncc(C(C#N)=C(C#N)C#N)s1 [Example 5],40990,470,,,"λ1/2-λ1/10 [2, 3]: 32^3) nm; Δλ ([2]; Table 1, |λDMF-λdioxane|): 16 nm"
CCCN1C(=O)C(=Cc2cnc(N(C)C)s2)C(C)=C(C#N)C1=O [Example 6],62860,502,,,"λ1/2-λ1/10 [2, 3]: 33^3) nm"
CCCCN(CCCC)c1ccc(C=C2C(=O)OC(C)(C)OC2=O)o1 [Example 8],70880,472,,,"λ1/2-λ1/10 [2, 3]: 32^3) nm; Δλ ([2]; Table 1, |λDMF-λdioxane|): 5 nm"
CCCCN(CCCC)c1ccc(C=C2C(=O)N(C)C(=O)N(C)C2=O)o1 [Example 9],117700,,,,"λmax ([2]; Table 1, in DMF): 490^6) nm"
CCCCN(CCCC)c1ccc(C=C2C(=O)N(C)C(=O)C(C#N)=C2C)o1 [Example 10],106640,539,,,
CCCCN(CCCC)c1ncc(C=C2C(=O)N(CC)C(=O)C(C#N)=C2C)s1 [Example 13],78400,508,,,
CCCCN(CCCC)c1ccc(C=C2C(=O)N(CCOC)C(=O)C(C#N)=C2C)s1 [Example 14],112260,535,,,"λ1/2-λ1/10 [2, 4]: 13^4) nm"
CCCCCCCCCCCCN1C(=O)C(=Cc2ccc(N(C)C)o2)C(=O)N(C)C1=O [Example 15],53360,483,,,
CCCCCCN1C(=O)C(=Cc2ccc(N(C)C)o2)C(C)=C(C#N)C1=O [Example 16],128960,535,,,"Δλ ([2]; Table 1, |λDMF-λdioxane|): 1.3 nm"
CCN1C(=O)C(=Cc2ccc(N3CCCC3)o2)C(C)=C(C#N)C1=O [Example 17],115603,,,,"λmax ([2]; Table 1, in DMF): 536^6) nm; Δλ ([2]; Table 1, |λDMF-λdioxane|): 2 nm"
CCCCN(CCCC)c1ccc(C=C2C(=O)N(CCC)C(=O)C(C#N)=C2C)s1 [Example 18],112260,535,,,"λ1/2-λ1/10 [2, 4]: 13^4) nm"
CCCCN(CCCC)c1ccc(C=C2C(=O)N(C)C(=S)N(C)C2=O)o1 [Example 29],153420,508,,,"λ1/2-λ1/10 [2, 4]: 11^4) nm"
CCN(CC)c1ncc(C=C2C(=O)c3ccccc3C2=O)s1 [Example 32],62026,472,,,"λ1/2-λ1/10 [2, 3]: 42^3) nm"
CCN(CC)c1ncc(C=C(C#N)[n+]2ccccc2)s1.[O-][Cl+3]([O-])([O-])[O-] [Example 33],28360,,,,"λmax ([2]; Table 1, in methanol): 432^5) nm"
CCCOC(=O)C(C#N)=CC=C1N(C)c2ccccc2C1(C)C [Example 38],,,60390,429,"λ1/2-λ1/10 [2, 5]: 30^3) nm; Δλ ([2]; Table 2, |λDMF - λdioxane|): 7 nm"
CN1C(=CC=C2C(=O)c3ccccc3C2=O)C(C)(C)c2ccccc21 [Example 39],,,102220,487,"λ1/2-λ1/10 [2, 5]: 35^3) nm; Δλ ([2]; Table 2, |λDMF - λdioxane|): 6 nm"
CN1C(=CC=C2C(=O)OC(C)(C)OC2=O)C(C)(C)c2ccccc21 [Example 40],,,76260,448,"λ1/2-λ1/10 [2, 5]: 27^3) nm; Δλ ([2]; Table 2, |λDMF - λdioxane|): 2 nm"
CN1C(=CC=C2C(=O)CC(C)(C)CC2=O)C(C)(C)c2ccccc21 [Example 41],,,76130,469,"λ1/2-λ1/10 [2, 5]: 28^3) nm; Δλ ([2]; Table 2, |λDMF - λdioxane|): 3 nm"
CCCCN1C(=O)C(=CC=C2N(C)c3ccccc3C2(C)C)C(C)=C(C#N)C1=O [Example 42],,,113100,520,"λ1/2-λ1/10 [2, 6]: 12^4) nm; Δλ ([2]; Table 2, |λDMF - λdioxane|): 2 nm"
COc1ccc2c(c1)C(C)(C)C(=CC(C#N)=C(C#N)C#N)N2C [Example 43],,,31345,511,"λ1/2-λ1/10 [2, 5]: 36^3) nm; Δλ ([2]; Table 2, |λDMF - λdioxane|): 6 nm"
CC1=C(C#N)C(=O)N(C2CCCCC2)C(=O)C1=CC=C1N(C)c2ccccc2C1(C)C [Example 45],,,55910,519,"λ1/2-λ1/10 [2, 6]: 11^4) nm"
COc1ccc2c(c1)C(C)(C)C(=CC=C1C(=O)N(c3ccc(C4CCS(=O)(=O)C4)cc3)N=C1C)N2C (stereo not shown) [Example 50],,,47640,473,
CCOC(=O)C1=NN(c2ccccc2)C(=O)C1=CC=C1N(C)c2ccc(C(=O)OC)cc2C1(C)C [Example 52],,,62720,496,
